≈ marks a conversion by molar mass, not a printed value. Where “and” joins values, the source holds several entries; their conditions need not be identical. Identical values can stand only once.
Tests used:
[1] = In vitro skin permeation/retention with IL alone, horizontal diffusion cells; type: in vitro ADME; conditions: excised rat skin; for Effect on promoting permeation/retention of indomethacin: 20% IL or 1%SDS (label = vehicle); for Permeation/retention enhancement effect on apremilast: 20% IL (label = IL)
Protocol: (§1) Anesthetize rats by intraperitoneal injection with a dose of 1.0 g/kg urethane solution. Then remove the back hair using a pet shaver. Carefully remove the muscle tissue from the inner side of the skin with a surgical knife, cut it into small pieces, soak it in physiological saline for 30 min, cover the diffusion cell opening, and secure it with a clip. Intact rat skin was positioned between two cells, with the SC facing the donor compartment. The drugs were precisely measured at a weight of 4.00 mg each and subsequently dissolved in 4 mL of ILs or other control solutions, and added in donor compartment. The 0.01 M PBS (pH 6.8, 4.0 mL) was chosen as receptor medium. Sampling of ILs was conducted at various time points, specifically at 0, 4, 6, 8, 10, and 24 h. Following each sampling, 2.0 mL (all receptor medium was removed at the 10-h time point) of receptor medium was replaced with fresh PBS solution. The transdermal penetration of IS or IL-IS was conducted using an electroosmosis apparatus (Dajia DL-Z, China) to ensure a consistent current intensity of 0–0.5 mA. […] A receiving solution (2.0 mL) was collected at 1, 2, 4, 6, 8, and 10 h. After skin permeation experiments, rat skins were subsequently removed from cells, cut into pieces, and immersed in methanol for 12 h. The samples were then diluted with mobile phase at a ratio of 1:10. Following centrifugation for 10 min at 9000 rpm, the resulting supernatants were analyzed using HPLC, as previously described.
(§2) The drug skin permeation amount of solution system was calculated through concentration and volume of each sampling point: Q=[Cn×Vo+∑i=1n−1Ci×V]/S
(§3) In this experiment, Vo: 4.0 mL; V: 2.0 mL (24 h point: 4 mL); S: 0.74 cm^2.
(§4) The drug skin retention amount was calculated as follows: R=M/S

[2] = General properties of ILs diluted to 20% (w/w) with water: pH, electrical conductivity, viscosity; type: physicochemical; conditions: 20%IL in water
Protocol: Viscosity was determined using a viscometer (DV2T, Brookfield, America).

[3] = system: HaCaT cells; assay: Cytotoxicity of ILs, CCK-8 assay; type: cell-based, human; conditions: 24 h incubation
Protocol: The cytotoxicity of ILs to HaCaT cells was assessed using the Cell Counting Kit 8 (CCK-8) assay. The cell suspension (100 µL) was transferred to a 96-well plate at 8 × 10^3 cells/mL. Then, the 96-well plate was placed in a cell incubator. After 24 h, the medium was removed, and the cells were washed with phosphate-buffered saline (PBS, pH 7.4, 0.1 M). Then, ILs at different concentrations was added to each well for stimulation. After incubation for 24 h, CCK-8 solution (10 µL) was added to each well, followed by incubation for 2 h. The absorbance was measured at 450 nm using a microplate reader (SpectraMax iD5, Molecular Devices, America), and the cell viability was calculated.

[4] = In vitro skin permeation/retention with iontophoresis (IS) or IL-IS, horizontal diffusion cells; type: in vitro ADME, rat; conditions: for Effect of current intensity on retention amount / Effect of current intensity on transdermal permeation / Retention in negative current relative to positive current / Permeation in negative current relative to positive current / Increase of transdermal permeation by IL-IS / Increase of transdermal permeation by IL / Permeation applying IL-IS relative to IL alone / Permeation applying IL-IS relative to IS alone: 20% [Cho] [Cin]; for Effect of current intensity on retention amount / Effect of current intensity on transdermal permeation: negative current 0.1–0.3 mA; for Retention in negative current relative to positive current / Permeation in negative current relative to positive current: 0.3 mA; for Permeation in negative current relative to positive current / Increase of transdermal permeation by IL-IS / Increase of transdermal permeation by IL / Increase of transdermal permeation by IS: 10 h cumulative penetration; for Increase of transdermal permeation by IL: no current; for Increase of transdermal permeation by IS: no IL
Protocol: as §1, §2, §3, §4

[5] = physchem; conditions: Solubilities
[6] = system: rat skin; assay: CLSM of rhodamine B penetration into rat skin in vivo, with or without endocytosis inhibitors; conditions: for Fluorescence intensity after treatment with endocytosis inhibitors: nystatin, indomethacin, chlorpromazine applied 1 h before
[7] = 20% IL (label = IL), negative current 0.3 mA, 10 h
[8] = aripiprazole in 20% IL (label = IL)
[9] = pH 4.5, aqueous buffer, thermodynamic from solid
[10] = pH 6.8, aqueous buffer, thermodynamic from solid
[11] = pH 9, aqueous buffer, thermodynamic from solid
[12] = water, thermodynamic from solid

| SMILES | Electric conductivity [2] [ms/cm] | Viscosity [2] [mPa·s] | Cumulative permeation after 24 h ([1]; drug in water) | Skin retention amount after 24 h ([1]; drug in water) [µg/cm^2] | Effect of current intensity on retention amount ([4]; 10 h) | Effect of current intensity on transdermal permeation ([4]; 10 h) | Increase of transdermal permeation by IL-IS ([4]; negative current 0.3 mA) | Increase of transdermal permeation by IL [4] | Increase of transdermal permeation by IS ([4]; negative current 0.3 mA) | solubility [5, 9] [µg/mL] | solubility [5, 10] [µg/mL] | solubility [5, 11] [µg/mL] | solubility [5, 12] [µg/mL] | Permeation applying IL-IS relative to IL alone ([4]; negative current 0.3 mA, 10 h) | also measured |
| --- | --- | --- | --- | --- | --- | --- | --- | --- | --- | --- | --- | --- | --- | --- | --- |
| CCCCCCCCCCCCOS(=O)(=O)[O-].[Na+] [1%SDS, sodium dodecyl sulfate] | – | – | – | – | – | – | – | – | – | – | – | – | – | – | Effect on promoting permeation/retention of indomethacin ([1]; 24 h): no significant effect |
| CC(=O)[O-].C[N+](C)(C)CCO [[Cho] [Ace]] | 32.12 ± 0.03 | 1.69 ± 0.08 | – | – | – | – | – | – | – | – | – | – | – | – | pH [2]: 9.37 and 9.37 ± 0.01; Cytotoxicity of ILs, descending order (from LD 50) [3]: [Cho] [Ole] > [Cho] [Cin] > [Cho] [Ger] > [Cho] [Ace] > [Cho] [Tar]; Permeation/retention enhancement effect on apremilast ([1]; 24 h): did not have significant permeation/retention enhancement effects; 24 h cumulative permeability of indomethacin relative to water ([1]; indomethacin in 20% IL (label = IL)): 4.8 times; Permeation enhancement effect on aripiprazole when IL-IS applied [4, 7]: did not have significant permeation enhancement effects |
| C[N+](C)(C)CCO.O=C([O-])/C=C/c1ccccc1 [[Cho] [Cin]] | 18.60 ± 0.06 | 1.97 ± 0.04 | – | – | – | – | – | – | – | – | – | – | – | – | pH [2]: 8.27 and 8.27 ± 0.01; Permeation of aripiprazole after 24 h, in words [1, 8]: did not show a significant difference; Skin retention of aripiprazole after 24 h, in words [1, 8]: surpassed that of other ILs; Increase of 10 h cumulative permeation of aripiprazole with IL-IS compared to IL or IS alone ([4]; 20% IL (label = IL), negative current 0.3 mA): 14 fold |
| C[N+](C)(C)CCO.O=C([O-])C(O)C(O)C(=O)O (stereo not drawn) [[Cho] [Tar]] | 28.74 ± 0.01 | 1.48 ± 0.01 | – | – | – | – | – | – | – | – | – | – | – | – | Permeation/retention enhancement effect on apremilast ([1]; 24 h): did not have significant permeation/retention enhancement effects; Effect on promoting permeation/retention of indomethacin ([1]; 24 h): no significant effect; Permeation enhancement effect on aripiprazole when IL-IS applied [4, 7]: did not have significant permeation enhancement effects |
| CCOc1cc([C@@H](CS(C)(=O)=O)N2C(=O)c3cccc(NC(C)=O)c3C2=O)ccc1OC [apremilast] | – | – | 8.1 µg/cm^2 | 6.1 | did not result in a significant difference | not significantly enhanced | 16 fold | 31 fold | little effect | 18.3 ± 7.2 (≈ 39.7 µM) | 13.5 ± 0.5 (≈ 29.3 µM) | 6.8 ± 1 (≈ 14.8 µM) | 21.8 ± 3.8 (≈ 47.3 µM) | – | Transdermal permeation versus [Cho] [Cin] concentration ([1]; IL alone, 24 h): linear correlation; Skin retention amount versus [Cho] [Cin] concentration ([1]; [Cho] [Cin] 0–20%, IL alone): no significant change; Retention in negative current relative to positive current ([4]; 10 h): ~3.4 fold; Permeation in negative current relative to positive current [4]: about 3.2 fold; solubility [5]: 21.8 ± 3.8 µg/mL (≈ 47.3 µM) |
| O=C1CCc2ccc(OCCCCN3CCN(c4cccc(Cl)c4Cl)CC3)cc2N1 [aripiprazole] | – | – | negligible | 1.1 | did not result in a significant difference | positive linear correlation | 14 fold | little effect | little effect | 152 ± 16.3 (≈ 338 µM) | 8.5 ± 3.2 (≈ 19 µM) | 0.79 ± 0.5 (≈ 1.76 µM) | 0.94 ± 0.15 (≈ 2.1 µM) | about 14 fold | Cumulative permeation after 24 h ([1]; drug in 1% SDS): 0.35 µg/cm^2; Skin retention amount after 24 h ([1]; drug in 1% SDS): 2.6 µg/cm^2; Retention in negative current relative to positive current ([4]; 10 h): ~3.0 fold; Permeation in negative current relative to positive current [4]: ~5.0 fold; Transdermal penetration versus [Cho] [Cin] concentration under IL-IS ([4]; [Cho] [Cin] 0–20%, negative current 0.3 mA, 10 h): increase with the rise in the concentration; Permeation at different pH values ([4]; pH 4.5, pH 6.8 and pH 9.0, 10 h, IS-related factors): no significant change |
| CN(Cc1ccc(C(C)(C)C)cc1)Cc1cccc2ccccc12 [butenafine] | – | – | – | – | – | – | – | – | – | – | – | – | – | ~16.5 fold | Permeation applying IL-IS relative to IS alone ([4]; negative current 0.3 mA, 10 h): ~11.0 fold |
| COc1ccc2c(c1)c(CC(=O)O)c(C)n2C(=O)c1ccc(Cl)cc1 [indomethacin] | – | – | 10.06 µg/cm^2 | 6.1 | did not result in a significant difference | not significantly enhanced | little effect | 3.3 fold | 1.6 fold | 2630 ± 648 (≈ 7350 µM) | 21.5 ± 5.7 (≈ 60.1 µM) | 2230 ± 136 (≈ 6230 µM) | 28.5 ± 0.7 (≈ 79.7 µM) | – | – |
| CCN(CC)c1ccc2c(-c3ccccc3C(=O)O)c3ccc(=[N+](CC)CC)cc-3oc2c1 [rhodamine B] | – | – | – | – | – | – | – | – | – | – | – | – | – | – | Fluorescence intensity after treatment with endocytosis inhibitors ([6]; IL, IS and IL-IS groups): partially suppressed; Fluorescence intensity after treatment with endocytosis inhibitors ([6]; control gel group): no substantial alteration; Transmission pathway in skin (overlap with DAPI) ([6]; rat skin in vivo, 10 h): primarily occurred through accessory organs; CLSM fluorescence intensity and depth in skin, order of treatments ([6]; rat skin in vivo, 10 h, control gel, IL gel, IS, IL-IS): IL-IS > IS > IL > Control |
| COc1cc2nc(N3CCN(C(=O)C4CCCO4)CC3)nc(N)c2cc1OC (stereo not drawn) [terazosin] | – | – | – | – | – | – | – | – | – | – | – | – | – | ~2.6 fold | Permeation applying IL-IS relative to IS alone ([4]; negative current 0.3 mA, 10 h): ~5.2 fold |
